{"source": "patent US20070207193A1", "about": "“Novel application of topical anesthetics for modulation of neurogenic tremor” (priority 2006, published 2007)", "origin": "cited, not measured here", "key": {"subthalamic nucleus": {"tested_on": "subthalamic nucleus", "details": "applied centrally in the subcortical areas of the brain"}, "Parkinsonian tremor": {"tested_on": "Parkinsonian tremor", "details": "ten patients undergoing stereotactic thalamotomy"}}, "data": [{"smiles": "CCN(CC)CC(=O)Nc1c(C)cccc1C", "note": "[lidocaine]", "values": [{"measurement": "effect on tremor", "setting": "subthalamic nucleus", "value": "ameliorated tremor"}, {"measurement": "cases in which microinjection replicated the effects of microstimulation", "setting": "Parkinsonian tremor", "value": "⅔"}]}]}
